Assay results reported in PubChem BioAssay AID220 (DTP/NCI, 2004).
“And” between values parts separate entries of the source, which are not always exact repeats. Equal entries are not always repeated. Results filed as inconclusive are left out.

Tested on: CD8F1 mice, subcutaneous mammary adenocarcinoma, T/C%
Assay: NCI In Vivo Anticancer Drug Screen. Data for tumor model Mammary Adenocarcinoma CD8F1 (subcutaneous) in CD8F1
Conditions: higher = larger tumour
Procedure, shortened: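 Mice carrying transplanted tumors received test compound, and survival or tumor size was recorded. Each value is the treated-group measurement divided by the corresponding measurement in vehicle-dosed controls.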

[1] = endpoint: median tumor weight (est.), dose: 12.5 mg/kg/injection, schedule: Q07DX005 (ip), vehicle: saline with Tween-80
[2] = endpoint: median tumor weight (est.), dose: 100.0 mg/kg/injection, schedule: Q07DX005 (ip), vehicle: saline with Tween-80
[3] = endpoint: median tumor weight (est.), dose: 200.0 mg/kg/injection, schedule: Q07DX005 (ip), vehicle: saline with Tween-80
[4] = endpoint: median tumor weight (est.), dose: 25.0 mg/kg/injection, schedule: Q07DX005 (ip), vehicle: suspension in saline
[5] = endpoint: median tumor weight (est.), dose: 50.0 mg/kg/injection, schedule: Q07DX005 (ip), vehicle: suspension in saline
[6] = endpoint: median tumor weight (est.), dose: 25.0 mg/kg/injection, schedule: Q07DX005 (ip), vehicle: saline with Tween-80
[7] = endpoint: median tumor weight (est.), dose: 50.0 mg/kg/injection, schedule: Q07DX005 (ip), vehicle: saline with Tween-80
[8] = endpoint: median tumor weight change, dose: 62.5 mg/kg/injection, schedule: Q01DX001 (ip), vehicle: saline with Tween-80
[9] = endpoint: median tumor weight change, dose: 125.0 mg/kg/injection, schedule: Q01DX001 (ip), vehicle: saline with Tween-80

CCO/C=C1\SC(=S)N(c2ccccc2C)C1=O
T/C [1]: 106 % of control
T/C [2]: 115 % of control
T/C [3]: 95 % of control
T/C (endpoint: median tumor weight (est.), dose: 400.0 mg/kg/injection, schedule: Q07DX005 (ip), vehicle: saline with Tween-80): 67 % of control

O=C1NC2(CCCCC2)C(=O)N1CCN(CCCl)CCCl
T/C (endpoint: mean tumor weight, dose: 3.0 mg/kg/injection, schedule: Q07DX005 (ip), vehicle: Klucel (hydroxypropylcellulose) (HPC)): 81 % of control
T/C (endpoint: mean tumor weight, dose: 6.0 mg/kg/injection, schedule: Q07DX005 (ip), vehicle: Klucel (hydroxypropylcellulose) (HPC)): 82 % of control
T/C (endpoint: mean tumor weight, dose: 12.0 mg/kg/injection, schedule: Q07DX005 (ip), vehicle: Klucel (hydroxypropylcellulose) (HPC)): 42 % of control
T/C (endpoint: mean tumor weight, dose: 24.0 mg/kg/injection, schedule: Q07DX005 (ip), vehicle: Klucel (hydroxypropylcellulose) (HPC)): 26 % of control
T/C (endpoint: median tumor weight (est.), dose: 3.0 mg/kg/injection, schedule: Q07DX005 (ip), vehicle: saline): 68 % of control
T/C (endpoint: median tumor weight (est.), dose: 6.0 mg/kg/injection, schedule: Q07DX005 (ip), vehicle: saline): 75 % of control
T/C (endpoint: median tumor weight (est.), dose: 12.0 mg/kg/injection, schedule: Q07DX005 (ip), vehicle: saline): 45 % of control
T/C (endpoint: median tumor weight (est.), dose: 24.0 mg/kg/injection, schedule: Q07DX005 (ip), vehicle: saline): 6 % of control
T/C (endpoint: median tumor weight change, dose: 9.0 mg/kg/injection, schedule: Q01DX001 (ip), vehicle: saline with Tween-80): 60 % of control
T/C (endpoint: median tumor weight change, dose: 9.38 mg/kg/injection, schedule: Q01DX001 (ip), vehicle: saline with Tween-80): 75 % of control
T/C (endpoint: median tumor weight change, dose: 18.0 mg/kg/injection, schedule: Q01DX001 (ip), vehicle: saline with Tween-80): 62 % of control
T/C (endpoint: median tumor weight change, dose: 37.0 mg/kg/injection, schedule: Q01DX001 (ip), vehicle: saline with Tween-80): 32 % of control
T/C (endpoint: median tumor weight change, dose: 75.0 mg/kg/injection, schedule: Q01DX001 (ip), vehicle: saline with Tween-80): 19 % of control

CCN(CC)CCCC(C)Nc1c2ccc(Cl)cc2nc2ccc(OC)cc12 (stereo not given)
T/C (endpoint: median tumor weight (est.), dose: 12.5 mg/kg/injection, schedule: Q07DX005 (ip), vehicle: saline): 88 % of control
T/C (endpoint: median tumor weight (est.), dose: 25.0 mg/kg/injection, schedule: Q07DX005 (ip), vehicle: saline): 65 % of control
T/C [4]: 60 % of control
T/C (endpoint: median tumor weight (est.), dose: 50.0 mg/kg/injection, schedule: Q07DX005 (ip), vehicle: saline): 90 % of control
T/C [5]: 94 % of control
T/C (endpoint: median tumor weight (est.), dose: 100.0 mg/kg/injection, schedule: Q07DX005 (ip), vehicle: saline): 74 % of control
T/C (endpoint: median tumor weight (est.), dose: 100.0 mg/kg/injection, schedule: Q07DX005 (ip), vehicle: suspension in saline): 50 % of control

Nc1nc(=S)c2ncn(C3CC(O)C(CO)O3)c2[nH]1 (stereo not given)
T/C (endpoint: median tumor weight (est.), dose: 10.0 mg/kg/injection, schedule: Q07DX005 (ip), vehicle: saline with Tween-80): 17 % of control and 37 % of control
T/C (endpoint: median tumor weight (est.), dose: 12.5 mg/kg/injection, schedule: Q07DX005 (ip), vehicle: suspension in saline): 81 % of control
T/C (endpoint: median tumor weight (est.), dose: 20.0 mg/kg/injection, schedule: Q07DX005 (ip), vehicle: saline with Tween-80): 9 % of control and 21 % of control
T/C [4]: 101 % of control
T/C (endpoint: median tumor weight (est.), dose: 40.0 mg/kg/injection, schedule: Q07DX005 (ip), vehicle: saline with Tween-80): 6 % of control and 7 % of control
T/C [5]: 72 % of control
T/C (endpoint: median tumor weight (est.), dose: 80.0 mg/kg/injection, schedule: Q07DX005 (ip), vehicle: saline with Tween-80): 2 % of control and 5 % of control
T/C (endpoint: median tumor weight (est.), dose: 200.0 mg/kg/injection, schedule: Q07DX005 (ip), vehicle: suspension in saline): 62 % of control

COC(C(=O)C(O)C(C)O)C1CC2C=C3C=C(OC4CC(OC5CC(O)C(OC)C(C)O5)C(OC(C)=O)C(C)O4)C(C)C(=O)C3=C(O)C2=C(O)C1OC1CC(OC2CC(OC3CC(C)(O)C(O)C(C)O3)C(O)C(C)O2)C(O)C(C)O1 (stereo not given)
T/C (endpoint: mean tumor weight, dose: 1.0 mg/kg/injection, schedule: Q07DX005 (ip), vehicle: saline): 73 % of control
T/C (endpoint: mean tumor weight, dose: 2.0 mg/kg/injection, schedule: Q07DX005 (ip), vehicle: saline): 64 % of control
T/C (endpoint: median tumor weight (est.), dose: 0.5 mg/kg/injection, schedule: Q07DX005 (ip), vehicle: saline with Tween-80): 58 % of control
T/C (endpoint: median tumor weight (est.), dose: 1.0 mg/kg/injection, schedule: Q07DX005 (ip), vehicle: saline with Tween-80): 78 % of control
T/C (endpoint: median tumor weight (est.), dose: 2.0 mg/kg/injection, schedule: Q07DX005 (ip), vehicle: saline with Tween-80): 89 % of control

O=C1NC(c2ccccc2)N=C2Oc3ccccc3C=C12 (stereo not given)
T/C (endpoint: median tumor weight (est.), dose: 3.12 mg/kg/injection, schedule: Q07DX005 (ip), vehicle: saline with Tween-80): 116 % of control
T/C (endpoint: median tumor weight (est.), dose: 6.25 mg/kg/injection, schedule: Q07DX005 (ip), vehicle: saline with Tween-80): 50 % of control
T/C [1]: 109 % of control
T/C [6]: 78 % of control and 101 % of control
T/C [7]: 95 % of control and 115 % of control
T/C [2]: 63 % of control and 85 % of control

CC(=O)Oc1[nH]c(=O)c2cccc3c2c1CCC3
T/C (endpoint: median tumor weight change, dose: 450.0 mg/kg/injection, schedule: Q01DX001 (ip), vehicle: saline with Tween-80): 155 % of control
T/C (endpoint: median tumor weight change, dose: 1800.0 mg/kg/injection, schedule: Q01DX001 (ip), vehicle: saline with Tween-80): 99 % of control

C=CS(C=C)=NS(=O)(=O)c1ccc(C)cc1
T/C (endpoint: median tumor weight (est.), dose: 3.12 mg/kg/injection, schedule: Q07DX005 (ip), vehicle: Klucel (hydroxypropylcellulose) (HPC)): 94 % of control
T/C (endpoint: median tumor weight (est.), dose: 6.25 mg/kg/injection, schedule: Q07DX005 (ip), vehicle: Klucel (hydroxypropylcellulose) (HPC)): 101 % of control
T/C (endpoint: median tumor weight (est.), dose: 12.5 mg/kg/injection, schedule: Q07DX005 (ip), vehicle: Klucel (hydroxypropylcellulose) (HPC)): 89 % of control

CC1=C(/C=C/C(C)=C/C=C/C(C)=C/C=O)C(C)(C)CCC1
T/C [8]: 104 % of control
T/C [9]: 74 % of control

CCS/C(SC)=C(/c1ccccc1)[P+](c1ccccc1)(c1ccccc1)c1ccccc1
T/C (endpoint: median tumor weight change, dose: 0.5 mg/kg/injection, schedule: Q01DX001 (ip), vehicle: Klucel (hydroxypropylcellulose) (HPC)): 159 % of control
T/C (endpoint: median tumor weight change, dose: 1.0 mg/kg/injection, schedule: Q01DX001 (ip), vehicle: Klucel (hydroxypropylcellulose) (HPC)): 100 % of control
T/C (endpoint: median tumor weight change, dose: 2.0 mg/kg/injection, schedule: Q01DX001 (ip), vehicle: Klucel (hydroxypropylcellulose) (HPC)): 114 % of control
T/C (endpoint: median tumor weight change, dose: 4.0 mg/kg/injection, schedule: Q01DX001 (ip), vehicle: Klucel (hydroxypropylcellulose) (HPC)): 81 % of control
T/C (endpoint: median tumor weight change, dose: 8.0 mg/kg/injection, schedule: Q01DX001 (ip), vehicle: Klucel (hydroxypropylcellulose) (HPC)): 43 % of control

C=C(Cl)C(=NC(C)(C)C)Nc1ccccc1C
T/C (endpoint: median tumor weight change, dose: 31.25 mg/kg/injection, schedule: Q01DX001 (ip), vehicle: Klucel (hydroxypropylcellulose) (HPC)): 86 % of control
T/C (endpoint: median tumor weight change, dose: 62.5 mg/kg/injection, schedule: Q01DX001 (ip), vehicle: Klucel (hydroxypropylcellulose) (HPC)): 85 % of control

CS(=O)(=O)CS(=O)(=O)OCCCl
T/C (endpoint: median tumor weight change, dose: 125.0 mg/kg/injection, schedule: Q01DX001 (ip), vehicle: suspension in saline): 56 % of control
T/C (endpoint: median tumor weight change, dose: 250.0 mg/kg/injection, schedule: Q01DX001 (ip), vehicle: suspension in saline): 68 % of control

C=CS(=O)(=O)c1ccccc1
T/C (endpoint: mean tumor weight, dose: 25.0 mg/kg/injection, schedule: Q07DX005 (ip), vehicle: saline with Tween-80): 110 % of control
T/C (endpoint: mean tumor weight, dose: 50.0 mg/kg/injection, schedule: Q07DX005 (ip), vehicle: saline with Tween-80): 117 % of control
T/C (endpoint: mean tumor weight, dose: 100.0 mg/kg/injection, schedule: Q07DX005 (ip), vehicle: saline with Tween-80): 114 % of control
T/C (endpoint: mean tumor weight, dose: 200.0 mg/kg/injection, schedule: Q07DX005 (ip), vehicle: saline with Tween-80): 154 % of control

Cc1ccccc1SSc1ccccc1C
T/C [7]: 159 % of control
T/C [2]: 123 % of control
T/C [3]: 179 % of control

CCCCOCN(COCCCC)C12CC3CC(CC(C3)C1)C2
T/C [8]: 122 % of control
T/C [9]: 79 % of control
T/C (endpoint: median tumor weight change, dose: 250.0 mg/kg/injection, schedule: Q01DX001 (ip), vehicle: saline with Tween-80): 61 % of control

O=C1NC(=O)/C(=C/C=C/c2ccccc2)S1
T/C [1]: 66 % of control
T/C [6]: 100 % of control
T/C [2]: 81 % of control
T/C [3]: 101 % of control

O=c1[nH]c(=O)n(C2CC(O)C(CO)O2)cc1I (stereo not given)
T/C (endpoint: median tumor weight (est.), dose: 182.87 mg/kg/injection, schedule: Q07DX005 (ip), vehicle: saline with Tween-80): 99 % of control
T/C (endpoint: median tumor weight (est.), dose: 365.75 mg/kg/injection, schedule: Q07DX005 (ip), vehicle: saline with Tween-80): 76 % of control
T/C (endpoint: median tumor weight (est.), dose: 731.5 mg/kg/injection, schedule: Q07DX005 (ip), vehicle: saline with Tween-80): 91 % of control
T/C (endpoint: median tumor weight (est.), dose: 800.0 mg/kg/injection, schedule: Q07DX005 (ip), vehicle: saline with Tween-80): 45 % of control and 50 % of control
T/C (endpoint: median tumor weight (est.), dose: 1463.0 mg/kg/injection, schedule: Q07DX005 (ip), vehicle: saline with Tween-80): 50 % of control
T/C (endpoint: median tumor weight (est.), dose: 1600.0 mg/kg/injection, schedule: Q07DX005 (ip), vehicle: saline with Tween-80): 46 % of control and 53 % of control
T/C (endpoint: median tumor weight (est.), dose: 3200.0 mg/kg/injection, schedule: Q07DX005 (ip), vehicle: saline with Tween-80): 7 % of control and 10 % of control
